Test results reported in US20110245249A1, “Heterocyclically Substituted Anilinopyrimidines” (Bayer CropScience AG, priority 2008, published 2011).

Test: logP by HPLC on reversed-phase columns (EEC Directive 79/831 Annex V.A8)
Assay type: physicochemical
Settings: for log p [b]: pH 2.7; for log p [c]: pH 7.8; for log p [a]: pH 2.3
Description: The logP values were measured in accordance with EEC Directive 79/831 Annex V.A8 by HPLC (High Performance Liquid Chromatography) on reversed-phase columns (C 18) using the methods below:
[a] The determination was carried out in the acidic range at pH 2.3 using the mobile phases 0.1% aqueous phosphoric acid and acetronitrile linear gradient from 10% acetonitrile to 95% acetronitrile. [b] The LC-MS determination in the acid range was carried out at pH 2.7 using the mobile phases 0.1% aqueous formic acid and acetonitrile (contains 0.1% formic acid) linear gradient from 10% acetonitrile to 95% acetonitrile. [c] The LC-MS determination in the neutral range was carried out at pH 7.8 using the mobile phases 0.001 molar aqueous ammonium bicarbonate solution and acetonitrile linear gradient from 10% acetonitrile to 95% acetonitrile.

| chromatographic logP (pH 2.7, logP (pH 2.7)) | Compound | log p [b] | log p [c] | other results |
| --- | --- | --- | --- | --- |
|  | 2-Chloro-{[5-chloro-4-(cyclopropylamino)pyrimidin-2-yl]amino}benzenecarbaldehyde |  |  | logP (pH 2.7) (pH 2.7, LC-MS, 0.1% aqueous formic acid/acetonitrile): 2.68 |
| 3.24 | CC(=O)c1cccc(Nc2ncc(C(F)(F)F)c(NC3CCC3)n2)c1 [1-(3-{[4-(Cyclobutylamino)-5-(trifluoromethyl)pyrimidin-2-yl]amino}phenyl)ethanone] |  |  |  |
| 2.72 | CC(=O)c1cccc(Nc2ncc(C(F)(F)F)c(NC3CC3)n2)c1 [1-(3-{[4-(Cyclopropylamino)-5-(trifluoromethyl)pyrimidin-2-yl]amino}phenyl)ethanone] |  |  |  |
| 1.75 | CC(=O)c1cccc(Nc2ncc(Cl)c(NC3CC3)n2)c1 [1-(3-{[5-Chloro-4-(cyclopropylamino)pyrimidin-2-yl]amino}phenyl)ethanone] |  |  |  |
| 2.25 | CCC(=O)c1cccc(Nc2ncc(Cl)c(NC3CC3)n2)c1 [1-(3-{[5-Chloro-4-(cyclopropylamino)pyrimidin-2-yl]amino}phenyl)propan-1-one] |  |  |  |
| 1.93 | CC(=O)c1ccc(Nc2ncc(Cl)c(NC3CC3)n2)cc1 [1-(4-{[5-Chloro-4-(cyclopropylamino)pyrimidin-2-yl]amino}phenyl)ethanone] |  |  |  |
| 2.77 | CC(=O)c1cccc(Nc2ncc(C(F)(F)F)c(NCC3CC3)n2)c1 [1-[3-({4-[(Cyclopropylmethyl)amino]-5-(trifluoromethyl)pyrimidin-2-yl}amino)phenyl]-ethanone] |  |  |  |
|  | CC1CC1Nc1nc(Nc2cccc(C=O)c2)ncc1Cl (stereo not shown) [3-((5-Chloro-4-[(2-methylcyclopropyl)amino]pyrimidin-2-yl)amino)benzaldehyde] |  |  | chromatographic logP (pH 2.3, logP (pH 2.3)): 2.11 |
| 1.8 | COCC(C)Nc1nc(Nc2cccc(C=O)c2)ncc1Cl (stereo not shown) [3-({5-Chloro-4-[(1-methoxypropan-2-yl)amino]pyrimidin-2-yl}amino)benzenecarbaldehyde] |  |  |  |
| 2.46 | O=Cc1cccc(Nc2ncc(Cl)c(NCC(F)(F)F)n2)c1 [3-({5-Chloro-4-[(2,2,2-trifluoroethyl)amino]pyrimidin-2-yl}amino)benzenecarbaldehyde] |  |  |  |
| 2.01 | O=Cc1cccc(Nc2ncc(Cl)c(NCC(F)F)n2)c1 [3-({5-Chloro-4-[(2,2-difluoroethyl)amino]pyrimidin-2-yl}amino)benzenecarbaldehyde] |  |  |  |
| 1.94 | O=Cc1cccc(Nc2ncc(Cl)c(NCC3CC3)n2)c1 [3-({5-Chloro-4-[(cyclopropylmethyl)amino]pyrimidin-2-yl}amino)benzenecarbaldehyde] |  |  |  |
| 2.84 | CN(c1nc(Nc2cccc(C=O)c2)ncc1Cl)C1CC1 [3-({5-Chloro-4-[cyclopropyl(methyl)amino]pyrimidin-2-yl}amino)benzenecarbaldehyde] |  |  |  |
| 3.26 | O=Cc1cccc(Nc2ncc(C(F)(F)F)c(NC3CCC3)n2)c1 [3-{[4-(Cyclobutylamino)-5-(trifluoromethyl)pyrimidin-2-yl]amino}benzenecarbaldehyde] |  |  |  |
| 2.73 | O=Cc1cccc(Nc2ncc(C(F)(F)F)c(NC3CC3)n2)c1 [3-{[4-(Cyclopropylamino)-5-(trifluoromethyl)pyrimidin-2-yl]amino}benzenecarbaldehyde] |  |  |  |
| 1.26 | O=Cc1cccc(Nc2ncc(F)c(NC3CC3)n2)c1 [3-{[4-(Cyclopropylamino)-5-fluoropyrimidin-2-yl]amino}benzenecarbaldehyde] |  |  |  |
| 1.96 | O=Cc1cccc(Nc2ncc(I)c(NC3CC3)n2)c1 [3-{[4-(Cyclopropylamino)-5-iodopyrimidin-2-yl]amino}benzenecarbaldehyde] |  |  |  |
| 1.13 | Cc1cnc(Nc2cccc(C=O)c2)nc1NC1CC1 [3-{[4-(Cyclopropylamino)-5-methylpyrimidin-2-yl]amino}benzenecarbaldehyde] |  |  |  |
| 2.35 | O=Cc1cccc(Nc2ncc(Br)c(NC3CCC3)n2)c1 [3-{[5-Bromo-4-(cyclobutylamino)pyrimidin-2-yl]amino}benzenecarbaldehyde] |  |  |  |
| 1.93 | O=Cc1cccc(Nc2ncc(Br)c(NC3CC3)n2)c1 [3-{[5-Bromo-4-(cyclopropylamino)pyrimidin-2-yl]amino}benzenecarbaldehyde] |  |  |  |
| 2.16 | O=Cc1cccc(Nc2ncc(Cl)c(NC3CCC3)n2)c1 [3-{[5-Chloro-4-(cyclobutylamino)pyrimidin-2-yl]amino}benzenecarbaldehyde] |  |  |  |
| 1.82 | O=Cc1cccc(Nc2ncc(Cl)c(NC3CC3)n2)c1 [3-{[5-Chloro-4-(cyclopropylamino)pyrimidin-2-yl]amino}benzenecarbaldehyde] |  |  |  |
| 1.86 | CC(C)Nc1nc(Nc2cccc(C=O)c2)ncc1Cl [3-{[5-Chloro-4-(isopropylamino)pyrimidin-2-yl]amino}benzaldehyde] |  |  |  |
| 1.74 | C#CCNc1nc(Nc2cccc(C=O)c2)ncc1Cl [3-{[5-Chloro-4-(prop-2-yn-1-ylamino)pyrimidin-2-yl]amino}benzenecarbaldehyde] |  |  |  |
|  | CC1(C)COC(c2cccc(Nc3ncc(Cl)c(NC4CC4)n3)c2)OC1 [Example 2] | 2.45[b] |  |  |
|  | CC1OC(c2cccc(Nc3ncc(Cl)c(NC4CC4)n3)c2)OC1C (stereo not shown) [Example 3] | 2.2[b] |  |  |
|  | SCCOC(OCCS)c1cccc(Nc2ncc(Cl)c(NC3CC3)n2)c1 [Example 4] | 1.36 | 2.03 |  |
|  | CCC1COC(c2cccc(Nc3ncc(Cl)c(NC4CC4)n3)c2)O1 (stereo not shown) [Example 7] | 2.29 | 3.48 |  |

| chromatographic logP (pH 2.7, logP (pH 2.7)) | Compound | log p [b] | log p [c] | other results |
| --- | --- | --- | --- | --- |
|  | CC1COC(c2cccc(Nc3ncc(Cl)c(NC4CC4)n3)c2)O1 (stereo not shown) [Example 8] | 1.9[b] |  |  |
|  | CC1CC(C)OC(c2cccc(Nc3ncc(Cl)c(NC4CC4)n3)c2)O1 (stereo not shown) [Example 9] | 2.26 | 3.51 |  |
|  | CC1(c2cccc(Nc3ncc(C(F)(F)F)c(NCC4CC4)n3)c2)OCCO1 [Example 10] | 3.15[b] | 3.79 | log p [a]: 3.16 |
|  | CC1(c2cccc(Nc3ncc(C(F)(F)F)c(NC4CC4)n3)c2)OCCO1 [Example 11] | 3.03 | 3.46 |  |
|  | Brc1cnc(Nc2cccc(C3OCCO3)c2)nc1NC1CC1 [Example 13] | 1.75 | 2.82 |  |
|  | Brc1cnc(Nc2cccc(C3OCCCO3)c2)nc1NC1CC1 [Example 15] |  | 2.97 |  |
|  | CC1OC(c2cccc(Nc3ncc(Br)c(NC4CCC4)n3)c2)OC1C (stereo not shown) [Example 17] | 2.67 | 4.12 |  |
|  | Clc1cnc(Nc2cccc(C3OCCO3)c2)nc1NCC1CC1 [Example 18] | 1.73 | 3.06 |  |
|  | CC1(C)COC(c2cccc(Nc3ncc(Cl)c(NC4CCC4)n3)c2)OC1 [Example 19] | 2.57[b] | 4.13 | log p [a]: 2.29 |
|  | Brc1cnc(Nc2cccc(C3OCCO3)c2)nc1NC1CCC1 [Example 20] | 2.05 | 3.39 |  |
|  | CC1(C)COC(c2cccc(Nc3ncc(Br)c(NC4CCC4)n3)c2)OC1 [Example 21] | 3 | 4.51 |  |
|  | CC1(C)COC(c2cccc(Nc3ncc(C(F)(F)F)c(NC4CC4)n3)c2)OC1 [Example 25] | 3.7 | 4.07 |  |
|  | CC1(C)COC(c2cccc(Nc3ncc(C(F)(F)F)c(NC4CCC4)n3)c2)OC1 [Example 26] | 4.22 | 4.62 |  |
|  | Clc1cnc(Nc2cccc(C3OCC(c4ccccc4)O3)c2)nc1NC1CC1 (stereo not shown) [Example 29] |  | 3.93[c] |  |
|  | Clc1cnc(Nc2cccc(C3OCCO3)c2)nc1NC1CCC1 [Example 31] | 1.91 | 3.23 |  |
|  | Clc1cnc(Nc2cccc(C3OC4COCC4O3)c2)nc1NC1CC1 (stereo not shown) [Example 32] | 1.55[b] |  |  |
|  | ClCC1COC(c2cccc(Nc3ncc(Cl)c(NC4CC4)n3)c2)O1 (stereo not shown) [Example 33] | 2.19 |  | log p [a]: 1.85 |
|  | C=CCOCC1COC(c2cccc(Nc3ncc(Cl)c(NC4CC4)n3)c2)O1 (stereo not shown) [Example 34] | 2.25 | 3.39 |  |
| 2.44 | Clc1cnc(Nc2cccc(C3SCCCS3)c2)nc1NC1CC1 [Example 35, 5-Chloro-N^4-cyclopropyl-N^2-[3-(1,3-dithian-2-yl)phenyl]pyrimidine-2,4-diamine] |  |  | chromatographic logP (pH 2.7, log p [b]): 2.44; chromatographic logP (pH 7.8, log p [c]): 3.65 |
|  | COc1ccc(OCC2COC(c3cccc(Nc4ncc(Cl)c(NC5CC5)n4)c3)O2)cc1 (stereo not shown) [Example 36] | 2.64 | 3.78 |  |
|  | O=[N+]([O-])c1ccccc1C1COC(c2cccc(Nc3ncc(Cl)c(NC4CC4)n3)c2)O1 (stereo not shown) [Example 37] | 2.89 | 4 |  |
|  | CCCCCCC1COC(c2cccc(Nc3ncc(Cl)c(NC4CC4)n3)c2)O1 (stereo not shown) [Example 38] | 4.14 | 5.29 |  |
|  | CCCCC1COC(c2cccc(Nc3ncc(Cl)c(NC4CC4)n3)c2)O1 (stereo not shown) [Example 39] | 3.16 | 4.4 |  |
| 1.05 | CCN(CC)CC1COC(c2cccc(Nc3ncc(Cl)c(NC4CC4)n3)c2)O1 (stereo not shown) [Example 40, 5-Chloro-N^4-cyclopropyl-N^2-(3-{4-[(diethylamino)methyl]-1,3-dioxolan-2-yl}phenyl)-pyrimidine-2,4-diamine] |  |  | chromatographic logP (pH 2.7, log p [b]): 1.07; chromatographic logP (pH 7.8, log p [c]): 3.9 |
|  | Clc1cnc(Nc2cccc(C3OCC(CN4CCOCC4)O3)c2)nc1NC1CC1 (stereo not shown) [Example 41] |  | 2.54[c] |  |
|  | OCC1COC(c2cccc(Nc3ncc(Cl)c(NC4CC4)n3)c2)O1 (stereo not shown) [Example 42] | 1.16 | 1.96 |  |
|  | Clc1cnc(Nc2cccc(C3OCC(CN4CCCC4)O3)c2)nc1NC1CC1 (stereo not shown) [Example 43] | 0.99[b] |  |  |
